The record followed here is patent US20190112580A1, “METHODS FOR TREATING CO[…] AND RELATED CULTURED CELLS” (priority 2017, published 2019).

The subject of the test is proliferating CP and TD myoblast cultures. The test is described as follows: Global DNA methylation, MethylFlash Methylated DNA Quantification Kit. It is filed as cell-based, human. As to conditions: 5 μM, 24 hours; FIG. 9A. The method, then:
FIG. 9A illustrates global methylation levels of DNA in proliferating CP and TD myoblast cultures that were treated or non-treated with 5-AZA. Methylation levels were measured using a MethylFlash Methylated DNA Quantification Kit (EpiGentek, P-1034-96). Myoblasts were seeded into gelatin-coated 10 cm plates. Myoblast cell preparations from CP and TD study subjects were exposed to 5 μM of 5-AZA in proliferation medium. 5-AZA was introduced while the myoblast cell preparations were being developed in the high-serum medium, once the myoblast cell preparations were at about 60% of cell plate confluence by visual inspection. […] The myoblast cell preparations then had the 5-AZA washed off by switching the myoblast cell preparations each to fresh high-serum medium and further expanded to 90% of confluence. DNA was extracted from these cultures using the “DNA Purification from Cultured Cells” protocol as described in the Gentra Puregene DNA isolation kit (Qiagen, 158388).
In FIG. 9A, global methylation levels of DNA were investigated in proliferating CP and TD myoblast cultures that were treated or non-treated with 5-AZA. Methylation levels were measured using a MethylFlash Methylated DNA Quantification Kit (EpiGentek, P-1034-96). Myoblasts were seeded into gelatin-coated 10 cm plates. Myoblast cell preparations from CP and TD study subjects were exposed to 5 μM of 5-AZA in proliferation medium. […]

Molecules are shown by their SMILES.

Regarding `Nc1ncn([C@@H]2O[C@H](CO)[C@@H](O)[C@H]2O)c(=O)n1` [5-AZA, 5-azacytidine], the “global methylation levels of DNA” value was “caused global DNA hypomethylation in both CP and TD patients”.
